The target of assay [1] is T1, Kappa-type opioid receptor (Homo sapiens, UniProt P41145). In words: Agonist activity at human kappa opioid receptor stably transfected in CHO cells by [35S]GTP-gamma-S assay. The format is functional, cell-based.
Assay [2] concerns the target Delta-type opioid receptor (Homo sapiens, UniProt P41143). The experiment in a line: Displacement of [125I]IOXY from human delta opioid receptor.
For assay [3], the target named is Mu-type opioid receptor (Homo sapiens, UniProt P35372). In words: Displacement of [125I]IOXY from human mu opioid receptor. (In general: In a radioligand displacement assay an active substance lowers the binding of a labelled ligand.)
In assay [4] the target is T1, Kappa-type opioid receptor. In words: Displacement of [125I]IOXY from human kappa opioid receptor.
Assay [5] has as its target T1, Kappa-type opioid receptor. In words: Agonist activity at human kappa opioid receptor stably transfected in CHO cells by [35S]GTPgammaS assay relative to (-)-U50488. The format is functional, cell-based.

Some results are limits rather than exact numbers.

The results in this text go back to ChEMBL document CHEMBL1148513, “Synthetic studies of neoclerodane diterpenes from Salvia divinorum: selective modification of the furan ring” (Bioorg Med Chem Lett, 2006).

Chain of Delta-type opioid receptor (P41143 whole entry): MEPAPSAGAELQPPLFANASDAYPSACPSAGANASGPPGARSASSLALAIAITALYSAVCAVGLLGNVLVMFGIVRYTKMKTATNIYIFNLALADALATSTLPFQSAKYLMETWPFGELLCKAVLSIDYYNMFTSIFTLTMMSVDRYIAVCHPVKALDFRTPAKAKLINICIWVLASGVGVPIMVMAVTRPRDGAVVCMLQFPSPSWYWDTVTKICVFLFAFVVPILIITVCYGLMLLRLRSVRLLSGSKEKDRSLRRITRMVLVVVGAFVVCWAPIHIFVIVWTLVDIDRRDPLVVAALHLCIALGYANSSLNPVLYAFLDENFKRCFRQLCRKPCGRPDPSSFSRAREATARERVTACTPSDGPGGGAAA
T1 sequence (P41145 whole entry): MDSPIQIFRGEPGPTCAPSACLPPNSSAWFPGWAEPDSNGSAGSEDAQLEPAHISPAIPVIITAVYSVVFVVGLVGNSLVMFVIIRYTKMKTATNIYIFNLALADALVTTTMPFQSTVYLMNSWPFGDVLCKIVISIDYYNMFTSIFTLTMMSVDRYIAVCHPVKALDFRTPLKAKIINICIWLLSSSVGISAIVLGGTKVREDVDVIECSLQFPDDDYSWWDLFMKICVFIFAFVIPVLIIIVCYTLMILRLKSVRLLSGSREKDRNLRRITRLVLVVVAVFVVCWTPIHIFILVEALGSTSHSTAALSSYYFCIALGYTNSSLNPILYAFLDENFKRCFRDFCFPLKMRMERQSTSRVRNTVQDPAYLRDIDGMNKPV
Chain of Mu-type opioid receptor (P35372 whole entry): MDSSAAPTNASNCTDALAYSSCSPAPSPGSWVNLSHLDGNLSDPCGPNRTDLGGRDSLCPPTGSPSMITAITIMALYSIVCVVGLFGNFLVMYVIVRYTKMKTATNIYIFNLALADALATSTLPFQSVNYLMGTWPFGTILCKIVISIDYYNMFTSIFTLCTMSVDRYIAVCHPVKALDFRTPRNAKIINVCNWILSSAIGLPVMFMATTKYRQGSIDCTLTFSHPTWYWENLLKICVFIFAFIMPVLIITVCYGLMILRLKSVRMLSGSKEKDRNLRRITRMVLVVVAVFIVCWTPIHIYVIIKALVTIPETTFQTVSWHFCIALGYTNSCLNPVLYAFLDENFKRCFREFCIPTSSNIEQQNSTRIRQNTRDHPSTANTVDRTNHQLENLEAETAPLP

As usually defined, the Ki is a measure of affinity in units of concentration, obtained from inhibition or displacement. A higher Ki goes with lower affinity. The term Emax denotes the greatest response seen or fitted, relative to the assay's reference. Turning to `COC(=O)[C@@H]1C[C@H](OC(C)=O)C(=O)[C@H]2[C@@]1(C)CC[C@H]1C(=O)O[C@H](c3ccn(S(=O)(=O)c4ccccc4)c3)C[C@]21C`, the ED50 in assay [1] worked out at 9.16 µM. Also, the Ki in assay [2] was > 10 µM; in assay [3], > 10 µM; in assay [4], 0.41 µM. In assay [5], this molecule registered an Emax of 60%.

`COC(=O)[C@@H]1C[C@H](OC(C)=O)C(=O)[C@H]2[C@@]1(C)CC[C@H]1C(=O)O[C@H](c3ccn(S(C)(=O)=O)c3)C[C@]21C` had an ED50 in assay [1] of 3.6 µM. For the same molecule, the Ki in assay [2] is > 10 µM; in assay [3], > 10 µM; in assay [4] it was 0.84 µM. The Emax in assay [5] was 70%.

For the molecule `COC(=O)[C@@H]1C[C@H](OC(C)=O)C(=O)[C@H]2[C@@]1(C)CC[C@H]1C(=O)O[C@H](c3ccn(S(=O)(=O)c4ccc(OC)cc4)c3)C[C@]21C`, in assay [1], the ED50 worked out at 15.2 µM. In addition, the Ki in assay [2] is > 10 µM; in assay [3], > 10 µM; in assay [4] it was 1.62 µM. This molecule also returned an Emax in assay [5] of 60%.

Turning to `COC(=O)c1coc([C@@H]2C[C@]3(C)[C@H]4C(=O)[C@@H](OC(C)=O)C[C@@H](C(=O)OC)[C@]4(C)CC[C@H]3C(=O)O2)n1`, the Ki is > 10 µM in assay [2], > 10 µM in assay [3] and 8.53 µM in assay [4].
